“And” between values parts separate entries of the source, which are not always exact repeats. Equal entries are not always repeated.
Assays:
[1] = Urinary creatine excretion (24 h collections: 0-24, 24-48, 0-48 h) after administration of the solutions; assay type: in vivo, human; settings: p<0.05
Description: (§1) Measurement of creatine levels in the plasma preferably involves removing venous blood from the dorsal surface of a heated hand immediately before and 20, 40, and 60 min after the ingestion of a supplement. In addition, urine may be collected before and on the day of ingestion of a supplement. Plasma and urine creatine may be measured using high performance liquid chromatography and serum insulin was measured using a radioimmunoassay technique, an example of which is described in U.S. Pat. No. 5,968,900, which is fully incorporated herein by reference.
Urinary Creatine Content:
Three 24 h hour urinary collections were obtained from each volunteer for each arm of the study. The first collection (baseline) was completed prior to administration of the solution. The second collection (0-24 h) was initiated immediately after the administration of the first solution, until 24 h post administration. […] The volume of the urine excreted was recorded and a 5 ml sample was frozen at −20° C. until analysis. The samples were analyzed for Cr and Crn.
To calculate the total creatine (TCr) the Cr and Crn were added together. The TCr increase was calculated by subtracting the baseline TCr from the 0-24 h excretion and/or the 24-48 h excretion. The 0-48 h content was calculated by adding the 0-24 h TCr with the 24-48 h TCr increase in excretion. […]

[2] = human, in vivo
Description: as §1
(§2) Protocol: The volunteers were required to attend to the lab for 3 trials. Each consisted of an afternoon arm, and a morning arm. Each arm lasted for approximately 4 hours. The volunteers were asked to relax on a bed. A baseline blood sample was taken. Each solution was administered via a nasogastric tube (mean time of administration was approximately 7 minutes). Half-way through the administration, the stop clock was started. After the three hour protocol, a second solution was administered. The third solution was administered in the following morning arm of the trial. Each trial was separated by at least 12 days.
(§3) Each solution was administered via a nasogastric tube three times over 24 hours. A total amount of 15 g or Cr was administered.
Blood sampling: Blood samples were collected for three hours after administration of the solution. […]

serum insulin = experiment: Serum insulin concentration and area under the concentration time curve after oral challenge (nasogastric) in healthy male volunteers; assay type: in vivo, human
Description: as §1
Aim: The aim of this study was to identify a supplement that would optimize the augmentation of Cr retention after its supplementation, by increasing the insulinotropic effect, whilst consuming a lower carbohydrate load.
Study design: Randomized, double-blind, placebo controlled, cross-over design.
Volunteers: 7 healthy male volunteers. All volunteers were eligible to participate after satisfactory results from the medical screening.
as §2, §3
Blood sampling: Blood samples were collected for three hours after administration of the solution. Eleven blood samples obtained (including baseline sample). For the first hour after administration of the solution, a blood sample was obtained at 15 minute intervals. During the second and third hour of sampling, the intervals were increased to 20 minutes. Approximately 3 ml of blood was transferred to a lithium heparin containing tube and a further 3 ml were allowed to clot for plasma Cr and creatinine (Crn), and serum insulin analysis respectively.
Statistical analysis: A two-way repeated measure ANOVA statistical test was used. Significance was set at p<0.05. When a significant difference was observed, Fisher's post hoc analysis was performed in order to locate the difference. All individual results are included in the appendix.

[3] = system: skeletal muscle total creatine; settings: cited from earlier work

SMILES: CN(CC(=O)O)C(=N)N [C, creatine]
- urinary creatine content compared to CHO and PAC ([1]; FIG. 11, 0-24 h): significantly greater
- urinary creatine content compared to CHO and PAC ([1]; FIG. 13, 0-48 h following supplementation): significantly greater
- plasma creatine AUC compared to CHO and PAC [2]: significantly greater
- serum insulin concentration compared to PAC (serum insulin; FIG. 1, first oral challenge, from 15-140 min): significantly lower
- serum insulin concentration compared to CHO (serum insulin; FIG. 1, first oral challenge, from 15-160 min): significantly lower
- serum insulin concentration compared to CHO and PAC (serum insulin; FIG. 2, third oral challenge, from 15-160 min): significantly lower
- serum insulin AUC compared to CHO and PAC (serum insulin; FIG. 3, 80 min following the first oral challenge, p=0.02): significantly lower
- serum insulin AUC compared to CHO and PAC (serum insulin; FIG. 4, 180 min following the first oral challenge, p=0.015): significantly lower
- serum insulin AUC compared to CHO and PAC (serum insulin; FIG. 5, 80 min following the third oral challenge, p<0.001): significantly lower
- serum insulin AUC compared to CHO and PAC (serum insulin; FIG. 6, 180 min following the first oral challenge (so in the source), p<0.001): significantly lower
- insulin area under the time curve response (serum insulin; first oral challenge, 0-80 min (as headed), individual subject): −235 mU/l/min and −127 mU/l/min and −112 mU/l/min and −166 mU/l/min and −146 mU/l/min and −714 mU/l/min and −566 mU/l/min
- insulin area under the time curve response (serum insulin; first oral challenge, 0-80 min (as headed), mean of 7 subjects): −295 mU/l/min
- insulin area under the time curve response (serum insulin; first oral challenge, 0-180 min (as headed), individual subject): −32 mU/l/min and −48 mU/l/min and −50 mU/l/min and 21 mU/l/min and −11 mU/l/min and −299 mU/l/min and −186 mU/l/min
- insulin area under the time curve response (serum insulin; first oral challenge, 0-180 min (as headed), mean of 7 subjects): −86 mU/l/min
- serum insulin concentration (serum insulin; first oral challenge, 45 min, individual subject): 9.02 mU/l and 7.85 mU/l and 9.58 mU/l and 10.16 mU/l and 9.61 mU/l and 9.34 mU/l and 11.85 mU/l
- serum insulin concentration (serum insulin; first oral challenge, 45 min, mean of 7 subjects): 9.63 mU/l
- serum insulin concentration (serum insulin; first oral challenge, 60 min, individual subject): 9.17 mU/l and 7.54 mU/l and 9.74 mU/l and 8.51 mU/l
- insulin area under the time curve response (serum insulin; third oral challenge, 0-80 min, individual subject): 10 mU/l/min (2×) and −7 mU/l/min and −23 mU/l/min and 132 mU/l/min and −34 mU/l/min and −18 mU/l/min
- insulin area under the time curve response (serum insulin; third oral challenge, 0-80 min, mean of 7 subjects): 10 mU/l/min
- insulin area under the time curve response (serum insulin; third oral challenge, 0-180 min, individual subject): 274 mU/l/min (2×) and −63 mU/l/min and −109 mU/l/min and 195 mU/l/min and 1406 mU/l/min and −99 mU/l/min
- insulin area under the time curve response (serum insulin; third oral challenge, 0-180 min, mean of 7 subjects): 268 mU/l/min
- serum insulin concentration (serum insulin; third oral challenge, 0 min, individual subject): 8.91 mU/l (2×) and 8.31 mU/l and 10.38 mU/l and 9.64 mU/l and 10.31 mU/l and 8.65 mU/l
- serum insulin concentration (serum insulin; third oral challenge, 0 min, mean of 7 subjects): 9.30 mU/l
- serum insulin concentration (serum insulin; third oral challenge, 15 min, individual subject): 8.94 mU/l (2×) and 7.78 mU/l and 10.23 mU/l and 9.84 mU/l and 10.29 mU/l and 11.08 mU/l
- serum insulin concentration (serum insulin; third oral challenge, 15 min, mean of 7 subjects): 9.59 mU/l
- serum insulin concentration (serum insulin; third oral challenge, 30 min, individual subject): 9.44 mU/l (2×) and 7.90 mU/l and 10.92 mU/l and 10.89 mU/l and 9.80 mU/l and 11.61 mU/l
- serum insulin concentration (serum insulin; third oral challenge, 30 min, mean of 7 subjects): 10.00 mU/l
- serum insulin concentration (serum insulin; third oral challenge, 45 min, individual subject): 8.87 mU/l (2×) and 7.24 mU/l and 9.56 mU/l and 9.07 mU/l and 10.07 mU/l and 9.32 mU/l
- serum insulin concentration (serum insulin; third oral challenge, 45 min, mean of 7 subjects): 9.00 mU/l
- serum insulin concentration (serum insulin; third oral challenge, 60 min, individual subject): 8.92 mU/l (2×) and 7.99 mU/l and 10.03 mU/l and 8.61 mU/l and 9.69 mU/l and 10.81 mU/l
- serum insulin concentration (serum insulin; third oral challenge, 60 min, mean of 7 subjects): 9.28 mU/l
- serum insulin concentration (serum insulin; third oral challenge, 80 min, individual subject): 9.06 mU/l (2×) and 8.54 mU/l and 9.79 mU/l and 9.45 mU/l and 10.22 mU/l and 8.93 mU/l
- serum insulin concentration (serum insulin; third oral challenge, 80 min, mean of 7 subjects): 9.29 mU/l
- serum insulin concentration (serum insulin; third oral challenge, 100 min, individual subject): 8.54 mU/l (2×) and 8.56 mU/l and 9.59 mU/l (2×) and 9.34 mU/l and 9.38 mU/l
- serum insulin concentration (serum insulin; third oral challenge, 100 min, mean of 7 subjects): 9.08 mU/l
- serum insulin concentration (serum insulin; third oral challenge, 120 min, individual subject): 8.76 mU/l (2×) and 8.20 mU/l and 10.07 mU/l and 8.48 mU/l and 10.27 mU/l and 9.10 mU/l
- serum insulin concentration (serum insulin; third oral challenge, 120 min, mean of 7 subjects): 9.09 mU/l
- serum insulin concentration (serum insulin; third oral challenge, 140 min, individual subject): 8.29 mU/l (2×) and 8.44 mU/l and 8.57 mU/l and 8.55 mU/l and 8.56 mU/l and 9.20 mU/l
- serum insulin concentration (serum insulin; third oral challenge, 140 min, mean of 7 subjects): 8.56 mU/l
- serum insulin concentration (serum insulin; third oral challenge, 160 min, individual subject): 8.69 mU/l (2×) and 8.34 mU/l and 8.66 mU/l and 10.01 mU/l and 9.02 mU/l and 9.73 mU/l
- serum insulin concentration (serum insulin; third oral challenge, 160 min, mean of 7 subjects): 9.02 mU/l
- serum insulin concentration (serum insulin; third oral challenge, 180 min, individual subject): 8.58 mU/l (3×) and 8.61 mU/l and 8.56 mU/l and 9.43 mU/l and 9.04 mU/l
- serum insulin concentration (serum insulin; third oral challenge, 180 min, mean of 7 subjects): 8.77 mU/l

SMILES: CN(CC(=O)O)C(=N)N [carbohydrate free creatine, creatine]
- increase of total muscle creatine ([3]; 5 g creatine four times a day for 5 days): about 20 mmol/kg dm

SMILES: CN(CC(=O)O)C(=N)N [creatine, N-methyl-N-guanyl glycine]
- increase of muscle total creatine content, on average ([3]; 20 g/day for 5 days): 20%
- increase in human skeletal muscle total creatine (phosphocreatine and free creatine) stores ([3]; dietary creatine supplementation): 20-50%
